Key:
Format in all cases: cell-based, mouse
[1] = test system: α7 integrin (LacZ reporter in α7βgal+/− myoblasts); test: Myoblast α7+/LacZ integrin FDG assay (Burkin assay in myoblasts, 96-well); conditions: α7+/LacZ myoblasts, 96-well
[2] = test system: β-galactosidase in CMV-LacZ C2C12 myotubes; test: CMV-LacZ secondary screen in C2C12 myotubes (β-Gal stabilizing assay); conditions: for CMV-LACZ in Myotubes, signal relative to DMSO: C2C12 CMV-LacZ myotubes, fold relative to DMSO; for CMV-LACZ in Myotubes (β-galactosidase activity relative to DMSO): CMV-LacZ C2C12 myotubes, 96-well format
Description: In order to determine compounds that acted to stabilize β-gal in myogenic cells, a CMV-LacZ C2C12 cell line was used in a secondary screen. The EGFP gene from the pEGFP (Clontech) vector was replaced by LACZ PCR product with digests of the vector/PCR product performed using EcoRI (NEB) and NotI (NEB) and ligated using T4 DNA Ligase (NEB) following standard procedures to produce the CMV-LACZ vector. The LACZ gene was generated by PCR from the pBK-RSV (Stratagene) vector using primers LACZ EcoRI F- and LACZ NotI R-. The CMV-LACZ vector was then digested with AfIII (NEB) to linearize the construct, which was then transfected in C2C12 myoblasts using Lipofectamine 2000 (Invitrogen) following the manufacturer's instructions. […] Clonal lines were selected and screened for βgal levels using the myoblast FDG assay.
The assays were used the original 96-well format and new dose-response curves for myoblasts (N=3-6 replicates for each data point), myotubes (N=3-6 replicates for data point), and CMV-LacZ secondary assay (N=2 replicates for each data point) using concentrations of 0.5 μM, 1 μM, 5 μM, 10 μM, 20 μM, and 40 μM (Tables 9-16).

[3] = test system: α7 integrin (LacZ reporter in α7+/LacZ myotubes); test: Myotube α7 integrin FDG assay (Burkin assay in myotubes, 96-well); conditions: myotubes

Row | SMILES | Burkin Assay in Myoblasts, value relative to DMSO ([1]; 0.5 uM) | Burkin Assay in Myoblasts, value relative to DMSO ([1]; 1 uM) | Burkin Assay in Myoblasts, value relative to DMSO ([1]; 5 uM) | Burkin Assay in Myoblasts, value relative to DMSO ([1]; 10 uM) | Burkin Assay in Myoblasts, value relative to DMSO ([1]; 20 uM) | Burkin Assay in Myoblasts, value relative to DMSO ([1]; 40 uM) | CMV-LACZ in Myotubes, signal relative to DMSO ([2]; 5 uM) | CMV-LACZ in Myotubes, signal relative to DMSO ([2]; 10 uM) | CMV-LACZ in Myotubes, signal relative to DMSO ([2]; 20 uM) | CMV-LACZ in Myotubes, signal relative to DMSO ([2]; 40 uM) | Burkin Assay in Myotubes (signal relative to DMSO) ([3]; 0.5 uM) | Burkin Assay in Myotubes (signal relative to DMSO) ([3]; 1 uM) | Burkin Assay in Myotubes (signal relative to DMSO) ([3]; 5 uM) | Burkin Assay in Myotubes (signal relative to DMSO) ([3]; 10 uM) | Burkin Assay in Myotubes (signal relative to DMSO) ([3]; 20 uM) | Burkin Assay in Myotubes (signal relative to DMSO) ([3]; 40 uM) | Burkin Assay in Myoblasts, signal relative to DMSO ([1]; 0.5 uM) | Burkin Assay in Myoblasts, signal relative to DMSO ([1]; 1 uM) | Burkin Assay in Myoblasts, signal relative to DMSO ([1]; 5 uM) | Burkin Assay in Myoblasts, signal relative to DMSO ([1]; 10 uM) | further results
1 | COC(=O)C(=O)C/C(=N/Nc1ncnc2ccccc12)c1ccc(Cl)cc1 [MLS001174719-01] | 1.053 | 1.048 | 1.013 | 0.848 | 0.7524 | 0.5265 | 0.8551 | 0.832 | 0.9254 | 1.108 | 1.135 | 1.001 | 1.128 | 1.034 | 0.9771 | 0.7374 |  |  |  |  | 
2 | CNc1cc([N+](=O)[O-])ccc1OCc1ccccc1 [MLS000737204-01] |  |  |  |  |  |  | 1.029 | 0.8068 | 0.5772 | 0.3807 |  |  |  |  |  |  | 0.9011 | 0.9816 | 0.9164 | 0.9336 | Burkin Assay in Myoblasts, signal relative to DMSO ([1]; 20 uM): 0.8731; Burkin Assay in Myoblasts, signal relative to DMSO ([1]; 40 uM): 0.7472; Burkin Assay in Myotubes, α7 integrin LacZ reporter signal relative to DMSO ([3]; 0.5 uM): 1.043; Burkin Assay in Myotubes, α7 integrin LacZ reporter signal relative to DMSO ([3]; 1 uM): 1.173; Burkin Assay in Myotubes, α7 integrin LacZ reporter signal relative to DMSO ([3]; 5 uM): 1.0331; Burkin Assay in Myotubes, α7 integrin LacZ reporter signal relative to DMSO ([3]; 10 uM): 1.12; Burkin Assay in Myotubes, α7 integrin LacZ reporter signal relative to DMSO ([3]; 20 uM): 0.8815; Burkin Assay in Myotubes, α7 integrin LacZ reporter signal relative to DMSO ([3]; 40 uM): 0.6682
3 | N#Cc1ccc(OCC(O)CS(=O)(=O)c2ccccc2)cc1 (stereo not drawn) [MLS000721584-01] |  |  |  |  |  |  | 0.9573 | 0.9071 | 1.133 | 1.1019 |  |  |  |  |  |  | 0.933 | 0.8525 | 1.03 | 0.9846 | Burkin Assay in Myoblasts, signal relative to DMSO ([1]; 20 uM): 0.8663; Burkin Assay in Myoblasts, signal relative to DMSO ([1]; 40 uM): 0.7628; Burkin Assay in Myotubes, α7 integrin LacZ reporter signal relative to DMSO ([3]; 0.5 uM): 0.9148; Burkin Assay in Myotubes, α7 integrin LacZ reporter signal relative to DMSO ([3]; 1 uM): 0.9833; Burkin Assay in Myotubes, α7 integrin LacZ reporter signal relative to DMSO ([3]; 5 uM): 0.8802; Burkin Assay in Myotubes, α7 integrin LacZ reporter signal relative to DMSO ([3]; 10 uM): 0.8867; Burkin Assay in Myotubes, α7 integrin LacZ reporter signal relative to DMSO ([3]; 20 uM): 0.9155; Burkin Assay in Myotubes, α7 integrin LacZ reporter signal relative to DMSO ([3]; 40 uM): 0.9927
4 | CCOc1ccc(S(=O)(=O)NCCC(=O)NCC(c2cccs2)N2CCOCC2)cc1 (stereo not drawn) [MLS001080869-01] | 1.144 | 1.036 | 1.147 | 0.9857 | 0.973 | 0.8485 |  |  |  |  | 1.011 | 0.9574 | 0.974 | 0.9257 | 0.9862 | 0.9802 |  |  |  |  | CMV-LACZ in Myotubes (β-galactosidase activity relative to DMSO) ([2]; 5 uM): 0.9349; CMV-LACZ in Myotubes (β-galactosidase activity relative to DMSO) ([2]; 10 uM): 0.9153; CMV-LACZ in Myotubes (β-galactosidase activity relative to DMSO) ([2]; 20 uM): 0.9927; CMV-LACZ in Myotubes (β-galactosidase activity relative to DMSO) ([2]; 40 uM): 1.01
5 | COc1ccc2oc(C[S+]([O-])c3ccccc3)c(C(=O)O)c2c1 (stereo not drawn) [MLS001208858-01] |  |  |  |  |  |  | 0.944 | 0.8018 | 0.9471 | 0.9238 |  |  |  |  |  |  | 0.9851 | 1.003 | 0.8892 | 0.8759 | Burkin Assay in Myoblasts, signal relative to DMSO ([1]; 20 uM): 0.8548; Burkin Assay in Myoblasts, signal relative to DMSO ([1]; 40 uM): 0.8425; Burkin Assay in Myotubes, α7 integrin LacZ reporter signal relative to DMSO ([3]; 0.5 uM): 1.095; Burkin Assay in Myotubes, α7 integrin LacZ reporter signal relative to DMSO ([3]; 1 uM): 0.9977; Burkin Assay in Myotubes, α7 integrin LacZ reporter signal relative to DMSO ([3]; 5 uM): 1.104; Burkin Assay in Myotubes, α7 integrin LacZ reporter signal relative to DMSO ([3]; 10 uM): 1.062; Burkin Assay in Myotubes, α7 integrin LacZ reporter signal relative to DMSO ([3]; 20 uM): 1.1; Burkin Assay in Myotubes, α7 integrin LacZ reporter signal relative to DMSO ([3]; 40 uM): 1.007
6 | Cc1cc(NC(=O)CCC(=O)N(Cc2cccnc2)C(C(=O)NC(C)(C)C)c2ccccc2Cl)no1 (stereo not drawn) [MLS001220803-01] | 0.9688 | 1.0343 | 0.8878 | 0.9511 | 0.9503 | 0.9906 |  |  |  |  | 0.9345 | 0.9703 | 1.18 | 1.075 | 1.0147 | 0.9622 |  |  |  |  | CMV-LACZ in Myotubes (β-galactosidase activity relative to DMSO) ([2]; 5 uM): 1.115; CMV-LACZ in Myotubes (β-galactosidase activity relative to DMSO) ([2]; 10 uM): 1.064; CMV-LACZ in Myotubes (β-galactosidase activity relative to DMSO) ([2]; 20 uM): 1.091; CMV-LACZ in Myotubes (β-galactosidase activity relative to DMSO) ([2]; 40 uM): 1.05
